Active and inactive are the calls of the source. No cut-off for these calls is given here.
How the values were obtained:
HCT-116 = assay: Antiproliferative activity against human HCT-116 cells assessed as reduction in cell viability incubated for 48 hrs by MTT assay; format: functional, cell-based; settings: HCT-116, 48 h
SH-SY5Y [1] = assay: Induction of apoptosis in human SH-SY5Y cells assessed as necrotic cells at 5 uM incubated for 48 hrs by Annexin V-FITC/PI staining based flow cytometry analysis (reference value: 0.7%); format: functional
SH-SY5Y [2] = assay: Induction of cell cycle arrest in human SH-SY5Y cells assessed as accumulation of cells at S phase at 5 uM incubated for 48 hrs by LSRFortessa cell analyzer (reference value: 16.2%); format: functional
SH-SY5Y [3] = assay: Induction of apoptosis in human SH-SY5Y cells assessed as viable cells at 5 uM incubated for 48 hrs by Annexin V-FITC/PI staining based flow cytometry analysis (reference value: 91.3%); format: functional; settings: read-out: Activity
SH-SY5Y [4] = assay: Induction of mitochondrial membrane potential in human SH-SY5Y cells assessed as mitochondria depolarization at 5 uM incubated for 48 hrs by synergy H1 microplate reader analysis; format: functional, cell-based
HEK-293T = assay: Cytotoxicity against human HEK293T cells at 25 uM incubated for 48 hrs by MTT assay; format: toxicity, cell-based
SH-SY5Y [5] = assay: Induction of apoptosis in human SH-SY5Y cells assessed as late apoptotic cells at 5 uM incubated for 48 hrs by Annexin V-FITC/PI staining based flow cytometry analysis (reference value: 3.0%); format: functional
MCF7 = assay: Antiproliferative activity against human MCF7 cells assessed as reduction in cell viability incubated for 48 hrs by MTT assay; format: functional, cell-based; settings: MCF7, 48 h
SH-SY5Y [6] = assay: Induction of cell cycle arrest in human SH-SY5Y cells assessed as accumulation of cells at G1/G0 phase at 5 uM incubated for 48 hrs by LSRFortessa cell analyzer (reference value: 50.1%); format: functional
SH-SY5Y [7] = assay: Induction of cell cycle arrest in human SH-SY5Y cells assessed as accumulation of cells at G2/M phase at 5 uM incubated for 48 hrs by LSRFortessa cell analyzer (reference value: 28.4%); format: functional
SH-SY5Y [8] = assay: Induction of apoptosis in human SH-SY5Y cells assessed as early apoptotic cells at 5 uM incubated for 48 hrs by Annexin V-FITC/PI staining based flow cytometry analysis (reference value: 2.0%); format: functional
SH-SY5Y [9] = assay: Antiproliferative activity against human SH-SY5Y cells assessed as reduction in cell viability incubated for 48 hrs by MTT assay; format: functional, cell-based
Tubulin (Homo sapiens) [10] = biological target: T1, Tubulin (Homo sapiens) (UniProt P68371+Q9H4B7+P0DPH7+P68366+Q13509+Q71U36+P04350+Q3ZCM7+P07437+P68363+Q9BQE3+Q6PEY2+Q13885+Q9BVA1+Q9BUF5); assay: Inhibition of tubulin polymerization (unknown origin) at 1 uM incubated for 60 mins measured every 1 mins by spectrophotometric analysis; format: protein-complex assay
Tubulin (Homo sapiens) [11] = biological target: T1, Tubulin (Homo sapiens); assay: Inhibition of tubulin polymerization (unknown origin) at 5 uM incubated for 60 mins measured every 1 mins by spectrophotometric analysis; format: protein-complex assay

| Compound | IC50 (HCT-116) [µM] | Activity (SH-SY5Y [1]) [%] | Activity (SH-SY5Y [2]) [%] | viability at 5 µM (SH-SY5Y [3]) [%] | Activity (SH-SY5Y [4]) | Activity (HEK-293T) | Activity (SH-SY5Y [5]) [%] | IC50 (MCF7) [µM] | Activity (SH-SY5Y [6]) [%] | Activity (SH-SY5Y [7]) [%] | Activity (SH-SY5Y [8]) [%] | IC50 (SH-SY5Y [9]) [µM] | inhibition (Tubulin (Homo sapiens) [10]) | inhibition (Tubulin (Homo sapiens) [11]) |
| --- | --- | --- | --- | --- | --- | --- | --- | --- | --- | --- | --- | --- | --- | --- |
| COc1cc2c(-n3nnc4ccccc43)nc(-n3nnc4ccccc43)nc2c(OC)c1OC | 7.25 | 2 | 7.7 | 35.9 | inactive | Non-toxic | 51.8 | 3.45 | 78.9 | 8.4 | 10.3 | 8.14 | – | – |
| COc1cc2c(c(OC)c1OC)-c1ccc(OC)c(=O)cc1[C@@H](NC(C)=O)CC2 [COLCHICINE] | 1.65 | 3.9 | 4.1 | 35.1 | – | – | 54.5 | 4.48 | 5.1 | 90 | 6.5 | 6.82 | – | – |
| CN1CCN(c2nc(N3CCN(C)CC3)c3ccccc3n2)CC1 | 20.7 | – | – | – | – | – | – | > 25 | – | – | – | 23.8 | – | – |
| COc1cc2c(-n3ccnc3)nc(-n3ccnc3)nc2c(OC)c1OC | 2.65 | 6.8 | 6.8 | 33.3 | Active | Non-toxic | 50.3 | 4.25 | 11.3 | 79 | 9.6 | 9.91 | inactive | Active |
| c1ccc2c(-n3cnnc3)nc(-n3cnnc3)nc2c1 | 17.5 | – | – | – | – | – | – | 19 | – | – | – | 15.3 | – | – |
| c1ccc2c(-n3nnc4ccccc43)nc(-n3nnc4ccccc43)nc2c1 | > 25 | – | – | – | – | – | – | 15.3 | – | – | – | 11 | – | – |
| COc1cc2c(-n3cnnc3)nc(-n3cnnc3)nc2c(OC)c1OC | 13.8 | – | – | – | – | – | – | 23.1 | – | – | – | > 25 | – | – |
| COc1cc2c(N3CCN(C)CC3)nc(N3CCN(C)CC3)nc2c(OC)c1OC | 21.3 | – | – | – | – | – | – | 24.1 | – | – | – | > 25 | – | – |
| c1ccc(N2CCN(c3nc(N4CCN(c5ccccc5)CC4)c4ccccc4n3)CC2)cc1 | 9.19 | – | – | – | – | – | – | 12.8 | – | – | – | > 25 | – | – |
| c1ccc2c(N3CCOCC3)nc(N3CCOCC3)nc2c1 | > 25 | – | – | – | – | – | – | 14.6 | – | – | – | 18.9 | – | – |
| c1ccc(CN2CCN(c3nc(N4CCN(Cc5ccccc5)CC4)c4ccccc4n3)CC2)cc1 | > 25 | – | – | – | – | – | – | 21.8 | – | – | – | > 25 | – | – |
| COc1cc2c(N3CCOCC3)nc(N3CCOCC3)nc2c(OC)c1OC | > 25 | – | – | – | – | – | – | 18.8 | – | – | – | 15.9 | – | – |
| c1ccc2c(-n3ccnc3)nc(-n3ccnc3)nc2c1 | 9.43 | – | – | – | – | – | – | 11.5 | – | – | – | 15.7 | – | – |

Source: ChEMBL document CHEMBL6177929, “Synthesis and screening of novel 2,4-bis substituted quinazolines as tubulin polymerization promoters and antiproliferative agents” (RSC Med Chem, 2025)
